Several values for one entry are separate records, joined by “and”; a condition that tells them apart may be missing. Identical values can stand only once.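 These data come from cells grown in 96-well plates and exposed to compound for 48 hours at five concentrations. Here, GI50 denotes the concentration required for 50% inhibition of growth. TGI: total growth inhibition.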
Tests used:
Test in all cases: NCI-60 cell line screen, 48 h
DMS 114 small cell lung = system: DMS 114 small cell lung
M19-MEL melanoma = system: M19-MEL melanoma
KM20L2 colon = system: KM20L2 colon
LXFL 529 NSCLC = system: LXFL 529 NSCLC
SNB-78 CNS = system: SNB-78 CNS
DMS 273 small cell lung = system: DMS 273 small cell lung
DLD-1 colon = system: DLD-1 colon
RXF-631 renal = system: RXF-631 renal
HS 578T breast = system: HS 578T breast
NCI/ADR-RES ovarian = system: NCI/ADR-RES ovarian
PC-3 prostate = system: PC-3 prostate
BT-549 breast = system: BT-549 breast
T-47D breast = system: T-47D breast
MDA-MB-231 breast = system: MDA-MB-231 breast

SMILES: CC(=O)OCCOCNC(=S)N/N=C/c1ccc2ccccc2n1
- TGI (DMS 114 small cell lung): 71.3 µM
- TGI (M19-MEL melanoma): > 100 µM
- TGI (KM20L2 colon): 79.8 µM
- TGI (LXFL 529 NSCLC): > 100 µM
- TGI (SNB-78 CNS): > 100 µM
- TGI (DMS 273 small cell lung): > 100 µM
- TGI (DLD-1 colon): > 100 µM
- TGI (RXF-631 renal): > 100 µM

SMILES: [N-]=[N+]=Nc1ccc(CCN2CCN(c3cccc(C(F)(F)F)c3)CC2)cc1I
- TGI (M19-MEL melanoma): > 100 µM
- TGI (KM20L2 colon): > 100 µM
- TGI (LXFL 529 NSCLC): > 100 µM
- TGI (SNB-78 CNS): > 100 µM
- TGI (DMS 273 small cell lung): > 100 µM

SMILES: C[C@@H](C1CCC2C3C(=CC(=O)[C@@]21C)[C@H](C)[C@]1(CCC(=O)O1)C1OC31)[C@H]1C[C@]2(C)O[C@@](C)(O1)OC2(C)C (stereo partly drawn)
- TGI (DMS 114 small cell lung): > 100 µM
- TGI (M19-MEL melanoma): > 100 µM
- TGI (KM20L2 colon): > 100 µM
- TGI (LXFL 529 NSCLC): > 100 µM
- TGI (DMS 273 small cell lung): > 100 µM
- TGI (DLD-1 colon): > 100 µM
- TGI (RXF-631 renal): > 100 µM

SMILES: Clc1ccccc1C(n1ncc2ccccc21)n1ncc2ccccc21
- TGI (DMS 114 small cell lung): > 100 µM
- TGI (M19-MEL melanoma): > 100 µM
- TGI (LXFL 529 NSCLC): > 100 µM
- TGI (SNB-78 CNS): > 100 µM
- TGI (DMS 273 small cell lung): > 100 µM
- TGI (DLD-1 colon): > 100 µM

SMILES: O=C1c2ccccc2C(=O)C2C1C1C(=O)c3ccccc3C(=O)C21 (stereo not drawn)
- TGI (DMS 114 small cell lung): > 100 µM
- TGI (M19-MEL melanoma): > 100 µM
- TGI (KM20L2 colon): > 100 µM
- TGI (LXFL 529 NSCLC): > 100 µM
- TGI (DMS 273 small cell lung): > 100 µM
- TGI (DLD-1 colon): > 100 µM
- TGI (RXF-631 renal): > 100 µM

SMILES: Cc1nc2ccccc2c(=O)n1/N=C(\N=Nc1cc(Cl)ccc1Cl)c1cccc(-c2ccco2)c1
- TGI (DMS 114 small cell lung): > 100 µM
- TGI (M19-MEL melanoma): > 100 µM
- TGI (DMS 273 small cell lung): > 100 µM
- TGI (DLD-1 colon): > 100 µM
- TGI (RXF-631 renal): > 100 µM

SMILES: CC1(C)C(c2ccccc2)=NN(O)c2ccccc21
- TGI (M19-MEL melanoma): > 100 µM
- TGI (KM20L2 colon): > 100 µM
- TGI (LXFL 529 NSCLC): > 100 µM
- TGI (SNB-78 CNS): > 100 µM
- TGI (DMS 273 small cell lung): > 100 µM
- TGI (DLD-1 colon): > 100 µM

SMILES: Cc1cc(=O)n(-c2ccccc2)c(=O)o1
- TGI (DMS 114 small cell lung): > 100 µM
- TGI (M19-MEL melanoma): > 100 µM
- TGI (KM20L2 colon): > 100 µM
- TGI (LXFL 529 NSCLC): > 100 µM
- TGI (SNB-78 CNS): > 100 µM
- TGI (DMS 273 small cell lung): > 100 µM
- TGI (DLD-1 colon): > 100 µM

SMILES: CC(C)N(C(=O)C12C3C4C5C3C1(C(=O)N(C(C)C)C(C)C)C5(C#N)C42)C(C)C (stereo not drawn)
- TGI (DMS 114 small cell lung): > 100 µM
- TGI (M19-MEL melanoma): > 100 µM
- TGI (KM20L2 colon): > 100 µM
- TGI (LXFL 529 NSCLC): > 100 µM
- TGI (SNB-78 CNS): > 100 µM
- TGI (DMS 273 small cell lung): > 100 µM
- TGI (DLD-1 colon): 66.5 µM
- TGI (RXF-631 renal): > 100 µM

SMILES: O=C(c1ccccc1)C(c1ccccc1)C1(O)C(=O)Nc2ccccc21 (stereo not drawn)
- TGI (DMS 114 small cell lung): > 100 µM
- TGI (M19-MEL melanoma): > 100 µM
- TGI (KM20L2 colon): > 100 µM
- TGI (LXFL 529 NSCLC): > 100 µM
- TGI (SNB-78 CNS): > 100 µM
- TGI (DMS 273 small cell lung): > 100 µM
- TGI (DLD-1 colon): > 100 µM
- TGI (RXF-631 renal): > 100 µM

SMILES: CC1=CCC2(C#N)CCC1C2O (stereo not drawn)
- TGI (DMS 114 small cell lung): > 100 µM
- TGI (M19-MEL melanoma): > 100 µM
- TGI (KM20L2 colon): > 100 µM
- TGI (LXFL 529 NSCLC): > 100 µM
- TGI (SNB-78 CNS): > 100 µM
- TGI (DMS 273 small cell lung): > 100 µM
- TGI (DLD-1 colon): > 100 µM

SMILES: N=CCCN(CCC=N)c1ccc(/C=C2\CN(NC(=O)c3ccc(Cl)cc3)C(c3ccccc3)=N2)cc1
- TGI (DMS 114 small cell lung): > 100 µM
- TGI (KM20L2 colon): > 100 µM
- TGI (LXFL 529 NSCLC): > 100 µM
- TGI (SNB-78 CNS): > 100 µM
- TGI (DMS 273 small cell lung): > 100 µM
- TGI (DLD-1 colon): > 100 µM
- TGI (RXF-631 renal): > 100 µM

SMILES: O=C(O)c1c[nH]c2c(=O)[nH]cnc12
- TGI (DMS 114 small cell lung): > 100 µM
- TGI (M19-MEL melanoma): > 100 µM
- TGI (LXFL 529 NSCLC): > 100 µM
- TGI (SNB-78 CNS): > 100 µM
- TGI (DLD-1 colon): > 100 µM
- TGI (RXF-631 renal): > 100 µM

SMILES: COC1C(O)C(C)OC(OC2C(Oc3cccc4c(O)c5c(=O)oc6ccc(C)c7c(=O)oc(c34)c5c67)OC(C)C3O[C@H](c4ccccc4)OC32)C1O (stereo partly drawn)
- TGI (DMS 114 small cell lung): 2.69 µM
- TGI (HS 578T breast): 17.9 µM
- TGI (NCI/ADR-RES ovarian): 10.8 µM
- GI50 (PC-3 prostate): 0.243 µM
- TGI (PC-3 prostate): 8.71 µM
- GI50 (BT-549 breast): 0.685 µM and 1.5 µM
- TGI (BT-549 breast): 6.27 µM
- TGI (M19-MEL melanoma): 3.56 µM
- GI50 (T-47D breast): 0.483 µM
- TGI (KM20L2 colon): 2.98 µM
- GI50 (MDA-MB-231 breast): 0.455 µM
- TGI (MDA-MB-231 breast): 7.78 µM
- TGI (LXFL 529 NSCLC): 3.18 µM
- TGI (SNB-78 CNS): 4.73 µM
- TGI (DMS 273 small cell lung): 1.59 µM
- TGI (DLD-1 colon): 8.67 µM
- TGI (RXF-631 renal): 2.37 µM

SMILES: NC(C/[N+]([O-])=N/O)C(=O)O (stereo not drawn)
- TGI (DMS 114 small cell lung): 10.9 µM
- TGI (HS 578T breast): > 225 µM
- TGI (NCI/ADR-RES ovarian): > 434 µM
- GI50 (PC-3 prostate): 6.71 µM and 3.64 µM and 4.92 µM
- TGI (PC-3 prostate): > 500 µM
- GI50 (BT-549 breast): 4.46 µM and 9.57 µM and 9.78 µM
- TGI (BT-549 breast): > 500 µM
- TGI (M19-MEL melanoma): > 373 µM
- GI50 (T-47D breast): 198 µM
- TGI (T-47D breast): > 500 µM
- TGI (KM20L2 colon): > 500 µM
- TGI (MDA-MB-231 breast): > 500 µM
- TGI (SNB-78 CNS): > 500 µM
- TGI (DMS 273 small cell lung): 50.4 µM
- TGI (DLD-1 colon): > 500 µM

SMILES: O=C(Cc1nc2ccccc2c(=O)n1-c1c(Cl)cccc1Cl)c1ccncc1
- TGI (DMS 114 small cell lung): 78.6 µM
- TGI (M19-MEL melanoma): 39.6 µM
- TGI (KM20L2 colon): 85.9 µM
- TGI (LXFL 529 NSCLC): > 100 µM
- TGI (SNB-78 CNS): > 100 µM
- TGI (DMS 273 small cell lung): 40.6 µM
- TGI (DLD-1 colon): > 100 µM
- TGI (RXF-631 renal): 63.3 µM

SMILES: CC1(C)C(c2ccccc2)C12CCC1(C2=O)C(c2ccccc2)C1(C)C (stereo not drawn)
- TGI (DMS 114 small cell lung): 34.9 µM
- TGI (M19-MEL melanoma): 58.9 µM
- TGI (KM20L2 colon): 52.9 µM
- TGI (LXFL 529 NSCLC): > 100 µM
- TGI (SNB-78 CNS): 62.4 µM
- TGI (DMS 273 small cell lung): 45.3 µM

SMILES: CNC(=S)N/N=C1\CC(c2ccccc2)Oc2ccccc21 (stereo not drawn)
- TGI (M19-MEL melanoma): > 100 µM
- TGI (LXFL 529 NSCLC): > 100 µM
- TGI (SNB-78 CNS): > 100 µM
- TGI (DMS 273 small cell lung): > 100 µM
- TGI (DLD-1 colon): > 100 µM

SMILES: C=CCC1C(=O)C(C(=O)OC)N2CCc3c([nH]c4ccccc34)C12 (stereo not drawn)
- TGI (DMS 114 small cell lung): > 100 µM
- TGI (M19-MEL melanoma): > 100 µM
- TGI (KM20L2 colon): > 100 µM
- TGI (LXFL 529 NSCLC): > 100 µM
- TGI (DLD-1 colon): > 100 µM

Source: PubChem BioAssay (NCI)
